Consider 3 compounds from ChEMBL document CHEMBL1201862, “PubChem BioAssay data set” (2004).

Active and inactive are the calls of the source.

One assay addresses Caspase-9 (Homo sapiens, UniProt P55211). Kind of assay: inhibitors of purified CASP9 protease – biochemical, fluorescence, plate reader, cherry-picked samples, selectivity assay for caspase-6 inhibitor project, dose response (AID 743293).
Another assay has as its target T1, Caspase-6 (Homo sapiens, UniProt P55212).
T1 sequence (P55212 whole entry): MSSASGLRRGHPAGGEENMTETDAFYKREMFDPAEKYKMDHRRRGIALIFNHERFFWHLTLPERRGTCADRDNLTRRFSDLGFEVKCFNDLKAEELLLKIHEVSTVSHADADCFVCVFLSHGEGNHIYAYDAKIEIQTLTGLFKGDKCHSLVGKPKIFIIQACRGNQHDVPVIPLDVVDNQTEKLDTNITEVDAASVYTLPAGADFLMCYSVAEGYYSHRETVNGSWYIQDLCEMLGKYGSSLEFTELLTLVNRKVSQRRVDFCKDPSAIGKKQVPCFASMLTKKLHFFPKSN
Kind of assay: inhibition of CASP6 peptide cleavage – biochemical, VEID-R110 fluorescence, cherry-pick, dose response (AID 720632).

A short description of assay [1]: reduced cellular PGC1a acetyl-lysine signal – cell-based, cherry-picked samples, dose response (AID 720514).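 Also: potency may reflect raised or lowered acetylation signal.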 Format: functional.
In assay [2] the target is Dual specificity protein phosphatase 3 (Homo sapiens, UniProt P51452). The assay is described as follows: VHR1 phosphatase inhibitors, primary screen, biochemical, absorbance, uHTS (AID 1654).
For assay [3], the target named is Protein disulfide-isomerase A6 (Homo sapiens, UniProt Q15084). Kind of assay: reduced insulin turbidity driven by ERp5 (PDIA6) – biochemical, absorbance 650 nm, cherry-picked samples, dose response (AID 720566).
The target of assay [4] is T2, Sentrin-specific protease 6 (Homo sapiens, UniProt Q9GZR1).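 Also: Luminescence-based dose-response confirmatory assay of SENP6 inhibition, following up an ultra-high-throughput screen.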
T2 sequence (Q9GZR1 whole entry): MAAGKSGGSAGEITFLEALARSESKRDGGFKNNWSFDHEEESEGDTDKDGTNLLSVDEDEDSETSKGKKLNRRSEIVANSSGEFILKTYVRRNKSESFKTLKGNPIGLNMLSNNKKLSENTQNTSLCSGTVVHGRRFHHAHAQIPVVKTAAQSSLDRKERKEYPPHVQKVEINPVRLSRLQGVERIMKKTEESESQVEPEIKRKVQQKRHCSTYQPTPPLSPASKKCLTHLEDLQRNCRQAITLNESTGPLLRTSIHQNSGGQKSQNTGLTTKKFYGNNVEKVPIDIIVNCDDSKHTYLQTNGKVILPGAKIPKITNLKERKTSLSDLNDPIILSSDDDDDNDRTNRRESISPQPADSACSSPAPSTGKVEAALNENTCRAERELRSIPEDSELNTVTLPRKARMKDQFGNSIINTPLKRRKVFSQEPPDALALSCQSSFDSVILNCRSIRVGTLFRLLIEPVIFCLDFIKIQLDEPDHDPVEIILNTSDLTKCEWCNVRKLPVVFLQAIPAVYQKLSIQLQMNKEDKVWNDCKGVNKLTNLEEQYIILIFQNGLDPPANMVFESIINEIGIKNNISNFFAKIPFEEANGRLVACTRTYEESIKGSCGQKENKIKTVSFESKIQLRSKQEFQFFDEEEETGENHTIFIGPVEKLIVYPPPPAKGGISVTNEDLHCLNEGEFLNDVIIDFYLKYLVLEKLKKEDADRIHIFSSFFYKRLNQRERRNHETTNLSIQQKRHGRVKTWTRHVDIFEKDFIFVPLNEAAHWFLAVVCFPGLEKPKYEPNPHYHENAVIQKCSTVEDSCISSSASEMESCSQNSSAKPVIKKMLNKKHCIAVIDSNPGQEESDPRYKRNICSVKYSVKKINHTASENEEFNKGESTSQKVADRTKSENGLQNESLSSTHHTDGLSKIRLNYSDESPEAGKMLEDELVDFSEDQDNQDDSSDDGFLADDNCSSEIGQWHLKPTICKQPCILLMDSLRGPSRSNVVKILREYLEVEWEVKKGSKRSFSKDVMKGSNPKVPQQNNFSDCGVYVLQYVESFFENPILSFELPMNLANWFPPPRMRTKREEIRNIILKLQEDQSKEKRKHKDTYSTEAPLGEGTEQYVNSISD
Format: functional.

Assay [5] concerns the target MAP kinase-interacting serine/threonine-protein kinase 2 (Homo sapiens, UniProt Q9HBH9). Format: functional.
Assay [6] deals with Calcium/calmodulin-dependent protein kinase type II subunit delta (Homo sapiens, UniProt Q13557). Format: functional.
Assay [7] deals with Eukaryotic elongation factor 2 kinase (Homo sapiens, UniProt O00418). Format: functional.
The target in assay [8] is Dual specificity tyrosine-phosphorylation-regulated kinase 1A (Homo sapiens, UniProt Q13627). Format: functional.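 Also: measured against DYRK1A as one member of a broad kinome profiling panel.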
The target of assay [9] is BDNF/NT-3 growth factors receptor (Homo sapiens, UniProt Q16620). Format: functional.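 Also: NTRK2 measured as one member of a broad kinome-wide kinase profiling panel.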
Assay [10] deals with Inhibitor of nuclear factor kappa-B kinase subunit alpha (Homo sapiens, UniProt O15111). Format: functional.
Assay [11] has as its target Tyrosine-protein kinase Lyn (Homo sapiens, UniProt P07948). Format: functional.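 Also: lyn as one member of a kinase panel.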
Assay [12] addresses Tyrosine-protein kinase ABL1 (Homo sapiens, UniProt P00519). Format: functional.
Assay [13] concerns the target T3, Dual specificity tyrosine-phosphorylation-regulated kinase 3 (Homo sapiens, UniProt O43781).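 Also: measured as one member of a broad kinase panel.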
T3 sequence (O43781 whole entry): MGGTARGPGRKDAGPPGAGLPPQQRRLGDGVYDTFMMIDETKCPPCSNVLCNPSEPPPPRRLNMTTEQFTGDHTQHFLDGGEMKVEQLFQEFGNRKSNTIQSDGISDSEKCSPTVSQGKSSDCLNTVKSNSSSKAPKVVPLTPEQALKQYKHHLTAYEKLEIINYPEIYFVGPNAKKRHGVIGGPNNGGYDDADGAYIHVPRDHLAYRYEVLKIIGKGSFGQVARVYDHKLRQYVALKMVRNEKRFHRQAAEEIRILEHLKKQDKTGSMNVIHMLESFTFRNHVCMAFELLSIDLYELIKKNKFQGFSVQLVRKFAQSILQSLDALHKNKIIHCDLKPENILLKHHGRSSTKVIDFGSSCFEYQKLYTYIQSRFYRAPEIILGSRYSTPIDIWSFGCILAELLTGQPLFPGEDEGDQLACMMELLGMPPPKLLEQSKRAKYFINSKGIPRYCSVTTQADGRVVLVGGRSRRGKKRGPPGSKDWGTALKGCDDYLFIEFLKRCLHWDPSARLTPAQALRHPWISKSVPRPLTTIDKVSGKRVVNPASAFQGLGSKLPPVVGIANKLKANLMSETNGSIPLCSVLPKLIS
Format: functional.

In assay [14] the target is Serine/threonine-protein kinase D3 (Homo sapiens, UniProt O94806). Format: functional.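 Also: determined within a kinase panel screen, with PRKCN as the panel member.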
For assay [15], the target named is Cyclin-dependent kinase 19 (Homo sapiens, UniProt Q9BWU1). The assay is described as follows: Navigating the Kinome. Panel member name: CDC2L6. Format: functional.

Chain of Tyrosine-protein kinase ABL1 (P00519 whole entry): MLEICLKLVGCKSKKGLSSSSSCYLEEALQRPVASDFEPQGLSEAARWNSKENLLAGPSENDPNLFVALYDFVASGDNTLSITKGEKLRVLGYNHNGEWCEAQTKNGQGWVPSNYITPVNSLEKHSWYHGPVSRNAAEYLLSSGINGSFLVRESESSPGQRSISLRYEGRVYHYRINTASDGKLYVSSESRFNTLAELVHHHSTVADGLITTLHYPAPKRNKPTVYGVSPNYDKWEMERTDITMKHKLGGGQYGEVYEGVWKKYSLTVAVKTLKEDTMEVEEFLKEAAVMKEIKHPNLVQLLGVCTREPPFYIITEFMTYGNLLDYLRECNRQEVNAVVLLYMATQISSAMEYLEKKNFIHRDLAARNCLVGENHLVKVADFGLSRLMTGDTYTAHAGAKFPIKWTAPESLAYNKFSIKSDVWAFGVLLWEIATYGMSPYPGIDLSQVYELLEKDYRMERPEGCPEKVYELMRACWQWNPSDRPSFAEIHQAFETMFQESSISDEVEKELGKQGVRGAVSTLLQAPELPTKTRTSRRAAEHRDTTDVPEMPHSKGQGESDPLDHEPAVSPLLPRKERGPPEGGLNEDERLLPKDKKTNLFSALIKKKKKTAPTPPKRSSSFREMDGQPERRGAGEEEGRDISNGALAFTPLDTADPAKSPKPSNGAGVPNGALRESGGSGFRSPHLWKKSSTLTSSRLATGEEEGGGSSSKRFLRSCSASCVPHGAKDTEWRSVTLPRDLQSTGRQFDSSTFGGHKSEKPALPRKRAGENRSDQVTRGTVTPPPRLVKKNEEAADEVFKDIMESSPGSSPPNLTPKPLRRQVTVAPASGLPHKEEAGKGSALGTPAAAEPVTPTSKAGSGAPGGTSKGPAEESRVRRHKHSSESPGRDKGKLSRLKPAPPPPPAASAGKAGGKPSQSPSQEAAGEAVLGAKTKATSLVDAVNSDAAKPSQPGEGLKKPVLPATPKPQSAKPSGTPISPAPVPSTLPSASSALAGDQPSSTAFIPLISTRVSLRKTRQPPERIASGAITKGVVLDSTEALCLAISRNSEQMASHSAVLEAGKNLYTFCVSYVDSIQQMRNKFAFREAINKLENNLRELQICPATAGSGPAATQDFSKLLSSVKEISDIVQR
Chain of Tyrosine-protein kinase Lyn (P07948 whole entry): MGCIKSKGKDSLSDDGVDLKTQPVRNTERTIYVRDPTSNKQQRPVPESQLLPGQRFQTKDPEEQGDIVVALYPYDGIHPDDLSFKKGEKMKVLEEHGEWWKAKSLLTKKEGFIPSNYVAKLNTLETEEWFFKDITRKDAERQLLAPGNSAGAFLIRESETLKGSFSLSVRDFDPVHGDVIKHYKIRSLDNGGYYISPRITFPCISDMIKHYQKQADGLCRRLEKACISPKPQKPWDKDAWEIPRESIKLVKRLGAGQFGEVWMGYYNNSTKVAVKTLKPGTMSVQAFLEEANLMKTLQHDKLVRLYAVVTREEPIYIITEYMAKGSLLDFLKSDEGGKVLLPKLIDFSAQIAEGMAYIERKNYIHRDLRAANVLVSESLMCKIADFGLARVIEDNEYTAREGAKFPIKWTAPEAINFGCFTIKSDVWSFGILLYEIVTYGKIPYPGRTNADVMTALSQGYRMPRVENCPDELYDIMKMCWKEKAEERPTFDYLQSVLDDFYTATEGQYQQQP
Chain of Caspase-9 (P55211 1-315 limits assumed): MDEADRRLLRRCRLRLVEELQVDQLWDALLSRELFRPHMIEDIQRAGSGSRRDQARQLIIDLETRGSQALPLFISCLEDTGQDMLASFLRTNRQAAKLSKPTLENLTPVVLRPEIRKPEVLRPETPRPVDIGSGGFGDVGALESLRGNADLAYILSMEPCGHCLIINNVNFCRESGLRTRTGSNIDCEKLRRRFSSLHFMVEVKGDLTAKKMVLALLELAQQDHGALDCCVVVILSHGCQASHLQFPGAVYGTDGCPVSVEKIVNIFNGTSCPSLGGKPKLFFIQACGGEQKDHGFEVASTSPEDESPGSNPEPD
Chain of Caspase-9 (P55211 331-416 limits assumed): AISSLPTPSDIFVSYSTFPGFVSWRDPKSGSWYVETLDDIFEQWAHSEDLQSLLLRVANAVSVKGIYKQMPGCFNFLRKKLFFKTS
Chain of Serine/threonine-protein kinase D3 (O94806 whole entry): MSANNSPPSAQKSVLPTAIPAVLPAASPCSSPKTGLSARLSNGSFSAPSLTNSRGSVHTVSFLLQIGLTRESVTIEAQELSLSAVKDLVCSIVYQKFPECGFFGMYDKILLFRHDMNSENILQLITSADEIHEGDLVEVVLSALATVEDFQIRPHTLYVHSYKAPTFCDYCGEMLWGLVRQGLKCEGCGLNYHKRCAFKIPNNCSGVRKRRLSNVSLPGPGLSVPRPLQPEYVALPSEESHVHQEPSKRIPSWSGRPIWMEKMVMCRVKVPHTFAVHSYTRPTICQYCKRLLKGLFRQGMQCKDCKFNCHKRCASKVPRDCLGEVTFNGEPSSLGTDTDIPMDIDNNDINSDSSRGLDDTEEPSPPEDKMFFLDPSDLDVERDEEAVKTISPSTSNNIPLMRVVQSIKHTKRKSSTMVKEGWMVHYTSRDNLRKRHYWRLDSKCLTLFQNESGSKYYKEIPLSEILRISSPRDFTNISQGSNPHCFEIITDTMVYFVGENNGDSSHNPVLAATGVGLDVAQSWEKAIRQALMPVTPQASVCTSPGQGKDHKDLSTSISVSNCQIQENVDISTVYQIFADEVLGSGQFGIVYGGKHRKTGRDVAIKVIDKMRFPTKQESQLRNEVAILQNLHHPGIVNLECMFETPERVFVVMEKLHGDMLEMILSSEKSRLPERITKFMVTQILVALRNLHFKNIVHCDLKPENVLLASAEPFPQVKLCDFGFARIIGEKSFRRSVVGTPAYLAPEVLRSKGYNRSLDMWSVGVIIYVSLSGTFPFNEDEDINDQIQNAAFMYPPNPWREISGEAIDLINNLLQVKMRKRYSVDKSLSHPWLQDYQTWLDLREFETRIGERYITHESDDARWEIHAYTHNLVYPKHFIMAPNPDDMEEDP
Chain of Dual specificity protein phosphatase 3 (P51452 whole entry): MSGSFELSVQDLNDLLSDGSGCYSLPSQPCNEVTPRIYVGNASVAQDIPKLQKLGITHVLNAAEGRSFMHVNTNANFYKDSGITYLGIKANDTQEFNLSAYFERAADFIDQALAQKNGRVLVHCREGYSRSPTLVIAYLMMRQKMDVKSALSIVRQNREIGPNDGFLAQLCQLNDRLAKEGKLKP
Chain of Inhibitor of nuclear factor kappa-B kinase subunit alpha (O15111 whole entry): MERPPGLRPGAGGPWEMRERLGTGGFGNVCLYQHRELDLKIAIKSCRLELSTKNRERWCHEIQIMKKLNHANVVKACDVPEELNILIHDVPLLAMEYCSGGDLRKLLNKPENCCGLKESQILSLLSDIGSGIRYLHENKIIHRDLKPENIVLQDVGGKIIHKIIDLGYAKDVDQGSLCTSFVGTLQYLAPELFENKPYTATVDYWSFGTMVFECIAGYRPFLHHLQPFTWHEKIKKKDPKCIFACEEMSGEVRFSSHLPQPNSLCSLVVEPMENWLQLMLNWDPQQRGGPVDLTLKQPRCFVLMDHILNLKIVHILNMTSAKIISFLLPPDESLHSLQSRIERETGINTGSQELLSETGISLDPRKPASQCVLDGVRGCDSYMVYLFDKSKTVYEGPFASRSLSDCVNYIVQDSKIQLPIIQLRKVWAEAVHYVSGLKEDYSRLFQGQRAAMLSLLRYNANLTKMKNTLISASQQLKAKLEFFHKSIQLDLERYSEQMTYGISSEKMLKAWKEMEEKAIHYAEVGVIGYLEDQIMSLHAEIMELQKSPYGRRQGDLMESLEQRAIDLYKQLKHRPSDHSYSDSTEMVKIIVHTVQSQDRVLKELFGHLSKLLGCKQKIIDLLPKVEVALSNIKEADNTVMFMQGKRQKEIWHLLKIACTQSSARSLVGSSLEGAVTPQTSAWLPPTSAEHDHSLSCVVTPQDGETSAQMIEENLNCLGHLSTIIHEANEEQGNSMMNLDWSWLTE
Chain of BDNF/NT-3 growth factors receptor (Q16620 whole entry): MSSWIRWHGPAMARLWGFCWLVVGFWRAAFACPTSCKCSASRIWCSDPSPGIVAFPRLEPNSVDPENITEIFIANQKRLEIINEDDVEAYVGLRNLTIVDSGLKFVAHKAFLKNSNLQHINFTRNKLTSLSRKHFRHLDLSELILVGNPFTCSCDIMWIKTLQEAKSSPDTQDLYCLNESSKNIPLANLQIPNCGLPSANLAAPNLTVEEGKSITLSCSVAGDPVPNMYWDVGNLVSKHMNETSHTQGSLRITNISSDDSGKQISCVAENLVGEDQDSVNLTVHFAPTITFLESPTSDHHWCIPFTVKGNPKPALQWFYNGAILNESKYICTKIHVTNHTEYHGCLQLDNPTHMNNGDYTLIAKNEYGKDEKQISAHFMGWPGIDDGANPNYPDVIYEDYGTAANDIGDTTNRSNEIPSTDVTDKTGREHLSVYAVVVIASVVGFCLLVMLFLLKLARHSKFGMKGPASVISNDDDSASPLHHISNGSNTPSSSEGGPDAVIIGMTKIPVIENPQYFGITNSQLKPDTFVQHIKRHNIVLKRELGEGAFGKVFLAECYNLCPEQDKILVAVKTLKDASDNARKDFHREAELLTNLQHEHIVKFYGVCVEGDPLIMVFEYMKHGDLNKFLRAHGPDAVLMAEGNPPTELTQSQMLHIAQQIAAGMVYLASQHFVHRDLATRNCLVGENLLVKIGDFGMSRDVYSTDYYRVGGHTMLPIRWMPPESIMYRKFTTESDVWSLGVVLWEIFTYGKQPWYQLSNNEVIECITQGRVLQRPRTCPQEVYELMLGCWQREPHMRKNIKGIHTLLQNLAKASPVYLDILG

As for `CCCc1nc2c(=O)n(C)c(=O)nc-2n(C)n1`, the concentration at half-maximal activity (AC50) was 0.214 µM (active) on Caspase-9, 0.0636 µM (active) at Caspase-6, 2.95 µM (active) in assay [1] and 0.513 µM (active) in assay [3]. Moreover, in assay [2], the IC50 is < 0.98 µM (inactive).
Turning to `CC(=O)c1ccc(NC2=C(N3CCOCC3)C(=O)c3ccccc3C2=O)cc1`, the IC50 in assay [4] was 11.6 µM (active).
For the compound `COc1cc2ncn(-c3cc(OCc4ccccc4C(F)(F)F)c(C(N)=O)s3)c2cc1OC` [GW843682X], the Ki is > 10 µM (inactive) in assay [5]; > 6.31 µM (inactive) in assay [6]; > 3.98 µM (inactive) in assay [7]; 5.01 µM (active) in assay [8]; > 5.01 µM (inactive) in assay [9]; > 3.98 µM (inactive) in [10]. The Ki in [11] was > 1.58 µM (inactive); in assay [12] it was > 0.631 µM (inactive); in assay [13], > 6.31 µM (inactive); in [14] it was > 10 µM (inactive); in assay [15], > 100 µM (inactive).

Broadly, the AC50 is the midpoint of the concentration-response curve, whichever way the signal moves. The IC50 is the concentration at which inhibition is half-maximal. The Ki is the equilibrium dissociation constant of an inhibitor or competing ligand from its target.
